In article PMC7774954, “Interactomic affinity profiling by holdup assay: Acetylation and distal residues impact the PDZome-binding specificity of PTEN phosphatase” (PLoS ONE, 2020):
*1 amine or outer side, *2 acyl side, *3 side chain or, on linkers, in order; H or OH if unused. Where a SMILES comes first, the peptide text is derived from it. The star is where a group is joined. X1 = O=C(CCCC[C@@H]1SC[C@@H]2NC(=O)N[C@@H]21)NCCCOCCOCCOCCCN*; Suc = O=C(CCC(=O)[*:2])[*:1]

Test system: 266 human PDZ domains (PDZome)
Assay: Holdup assay (chromatographic retention, PDZome-binding profile, BI)
Design: key to maximal BI / Max BI / BI: binding intensity: 0.00 = no binding, 1.00 = maximal binding; Log(Kd): unit not given here
Outline: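 Streptavidin resin was saturated with biotinylated 11-mer or 13-mer PTEN PBM peptides (42 μM loading solution), with biotin-only resin as the reference. Resins were incubated for 15 min with lysates containing MBP- or thioredoxin-tagged PDZ domains adjusted to 4 μM, in singlicate. Free PDZ in the filtrate was quantified by capillary electrophoresis, and depletion versus reference gave binding intensity (0–1).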

[1] = PDZ domain PARD3-1, first of two lines so named (r186)

Q: What does the source list for `CC[C@H](C)[C@H](NC(=O)[C@H](CCC(N)=O)NC(=O)[C@@H](NC(=O)[C@H](Cc1c[nH]cn1)NC(=O)[C@H](CCC(N)=O)NC(=O)[C@H](CC(=O)O)NC(=O)[C@H](CCC(=O)O)NC(=O)[C@H](CC(=O)O)NC(=O)[C@H](Cc1ccccc1)NC(=O)[C@@H]1CCCN1C(=O)CCC(=O)NCCCOCCOCCOCCCNC(=O)CCCC[C@@H]1SC[C@@H]2NC(=O)N[C@@H]21)[C@@H](C)O)C(=O)N[C@H](C(=O)N[C@@H](CCCCN)C(=O)N[C@H](C(=O)O)C(C)C)[C@@H](C)O` [PTEN_13] ({X1-Suc}-PFDEDQHTQITKV-OH)?
A: number of additional new PDZ partners not detected for PTEN_11 (BI>0.20, compared with PTEN_11): 24; BI (PDZ domain MPDZ-2): 0.095; BI (PDZ domain MPDZ-3): 0.139; BI (PDZ domain MPDZ-4): 0.035; BI (PDZ domain MPDZ-5): -0.002; BI (PDZ domain MPDZ-6): -0.029; BI (PDZ domain MPDZ-7): 0.23; BI (PDZ domain MPDZ-8): 0.039; BI (PDZ domain MPDZ-9 (gene NHERF2, 2)): -0.021; BI (PDZ domain MPDZ-12): 0.024; BI (PDZ domain MPDZ-13): 0.225; BI (PDZ domain MPP1-1): -0.074; BI (PDZ domain MPP2-1): -0.014; BI (PDZ domain MPP3-1): -0.03; BI (PDZ domain MPP4-1): 0; BI (PDZ domain MPP5-1): 0.002; BI (PDZ domain MPP6-1): -0.068; BI (PDZ domain MPP7-1): -0.02; BI (PDZ domain NHERF1-2): 0.132; BI (PDZ domain NHERF3-1): 0.161; BI (PDZ domain NHERF3-2): 0.06; BI (PDZ domain NHERF3-3): 0.068; BI (PDZ domain NHERF3-4): -0.008; BI (PDZ domain NHERF4-1): 0.09; BI (PDZ domain NHERF4-2): 0.132; BI (PDZ domain NHERF4-3): 0.208; BI (PDZ domain NHERF4-4): -0.036; BI (PDZ domain NOS1-1): 0.002; BI [1]: 0.146; Log(Kd) [1]: 4.018; BI (PDZ domain PARD3-2): -0.023; BI (PDZ domain PARD3B-1): -0.096; BI (PDZ domain PARD3B-2): 0.088; BI (PDZ domain PARD3B-3): 0.134; BI (PDZ domain PARD6A-1): -0.115; BI (PDZ domain PARD6G-1): -0.065; BI (PDZ domain PCLO-1): -0.006; BI (PDZ domain PDLIM1-1): -0.067; BI (PDZ domain PDLIM2-1): -0.078; BI (PDZ domain PDLIM3-1): 0.139; BI (PDZ domain PDLIM4-1): 0.003; BI (PDZ domain PDLIM5-1): -0.025; BI (PDZ domain PDLIM7-1): 0.039; BI (PDZ domain PDZD2-1): -0.006; BI (PDZ domain PDZD2-2): 0.054; BI (PDZ domain PDZD2-3): -0.045; BI (PDZ domain PDZD2-4): 0.107; BI (PDZ domain PDZD2-5): 0.195; BI (PDZ domain PDZD2-6): -0.066; BI (PDZ domain PDZD4-1): 0.025; BI (PDZ domain PDZD7-1): -0.034; BI (PDZ domain PDZD7-2): -0.061; BI (PDZ domain PDZD7-3): 0.811; BI (PDZ domain PDZD8-1): 0.038; BI (PDZ domain PDZD9-1): 0.075; BI (PDZ domain PDZD11-1): -0.022; BI (PDZ domain PDZRN3-1): 0.024; BI (PDZ domain PDZRN3-2): 0.032; BI (PDZ domain PDZRN4-1): -0.022; BI (PDZ domain PDZRN4-2): -0.019; BI (PDZ domain PICK1-1): 0.089; BI (PDZ domain PPP1R9A-1): -0.068; BI (PDZ domain PPP1R9B-1): -0.064; BI (PDZ domain PREX1-1): -0.02; BI (PDZ domain PREX1-2): 0.087; BI (PDZ domain PREX2-1): 0.032; BI (PDZ domain PREX2-2): -0.046; BI (PDZ domain PRX-1): -0.006; BI (PDZ domain PSCDBP-1): 0.094; BI (PDZ domain PSMD9-1): 0.022; BI (PDZ domain PTPN3-1): 0.015; BI (PDZ domain PTPN4-1): 0.026; BI (PDZ domain PTPN13-1): 0.009; BI (PDZ domain PTPN13-3): -0.036; BI (PDZ domain PTPN13-5): 0.022; BI (PDZ domain RADIL-1): 0.092; BI (PDZ domain RAPGEF2-1): -0.023; BI (PDZ domain RAPGEF6-1): -0.02; BI (PDZ domain RGS3-1): 0.249; BI (PDZ domain RGS12-1): 0.04; BI (PDZ domain RHPN1-1): 0.479; BI (PDZ domain RHPN2-1): 0.033; BI (PDZ domain RIMS1-1): -0.009; BI (PDZ domain RIMS2-1): -0.031; BI (PDZ domain SCRIB-1): 0.173; BI (PDZ domain SCRIB-2): -0.031; BI (PDZ domain SCRIB-4): -0.007; BI (PDZ domain SDCBP2-1): 0.022; BI (PDZ domain SDCBP2-2): -0.007; BI (PDZ domain SDCBP-2): -0.032; BI (PDZ domain SHROOM2-1): -0.059; BI (PDZ domain SHROOM3-1): -0.047; BI (PDZ domain SHROOM4-1): -0.086; BI (PDZ domain SIPA1-1): -0.045; BI (PDZ domain SIPA1L1-1): 0.023; BI (PDZ domain SIPA1L2-1): -0.04; BI (PDZ domain SIPA1L3-1): -0.026; BI (PDZ domain SNTA1-1): 0.142; BI (PDZ domain SNTB1-1): 0.224; BI (PDZ domain SNTG1-1): 0.14; BI (PDZ domain SNTG2-1): 0.015; number of PDZ domains identified as potential binders (BI>0.20) (holdup, singlicate, threshold BI>0.20): 24 PDZ domains; maximal BI (holdup, singlicate, highest BI in the PDZome profile, BI standard error ~0.07): 0.81; effect on PDZ binding profile (in words) (holdup/FP profile, compared with PTEN_11): markedly stronger compared to the affinities observed for the same PDZ partners in PTEN_11; Max BI (maximum over PDZome): 0.88
